Tests used:
[1] = tested on: Mouse In Vivo Chemotherapy-Induced Intestinal Injury Model; assay: Diarrhea in chemotherapy (5FU)-induced intestinal injury model; set-up: species or system BALB/c mice
Procedure: Compounds were formulated in vehicle (0.25% methyl cellulose, 5% Tween 80, 0.02% sodium dodecyl sulfate (SDS) in Hanks' Buffered Salt Solution with Ca2+ and Mg2+). On day 1, either saline or a 400 mg/kg dose of 5-fluorouracil (5FU) in saline was administered by intraperitoneal injection to BALB/c mice. Starting on day 2, vehicle or compound was administered once or twice a day by oral gavage. In some instances, compound was also administered once or twice a day by oral gavage from day −3 to day −1 (pre-5FU). From days 5 to 6 post-5FU, the animals were scored for diarrhea severity once a day. The diarrhea was scored 0-3 as follows: 0—normal consistency (black and solid), 1—soft (black and a bit lighter/yellow), 2—loosely shaped stool (yellowish and somewhat watery), 3—extreme diarrhea (very watery). Day 5 and day 6 diarrhea scores following administration of certain compounds were lower than vehicle control mice. […] In addition, Compound 1 was efficacious at doses as low as 3 mg/kg BID (6 mg/kg total daily dose).

[2] = target: Recombinant AMPK α1/β1/γ1 complex (Homo sapiens (Human), UniProt Q13131+Q9Y478); assay: In vitro pAMPK1 kinase activation assay (ADP-Glo, SAMS peptide); format: biochemical; conditions: for EC50: AMPK α1/β1/γ1 pre-activated with CAMKK2, 12-point curve; for activation at 10 µM: relative to reference compound MK-8722
Chain of Recombinant AMPK α1/β1/γ1 complex (Q13131 whole entry): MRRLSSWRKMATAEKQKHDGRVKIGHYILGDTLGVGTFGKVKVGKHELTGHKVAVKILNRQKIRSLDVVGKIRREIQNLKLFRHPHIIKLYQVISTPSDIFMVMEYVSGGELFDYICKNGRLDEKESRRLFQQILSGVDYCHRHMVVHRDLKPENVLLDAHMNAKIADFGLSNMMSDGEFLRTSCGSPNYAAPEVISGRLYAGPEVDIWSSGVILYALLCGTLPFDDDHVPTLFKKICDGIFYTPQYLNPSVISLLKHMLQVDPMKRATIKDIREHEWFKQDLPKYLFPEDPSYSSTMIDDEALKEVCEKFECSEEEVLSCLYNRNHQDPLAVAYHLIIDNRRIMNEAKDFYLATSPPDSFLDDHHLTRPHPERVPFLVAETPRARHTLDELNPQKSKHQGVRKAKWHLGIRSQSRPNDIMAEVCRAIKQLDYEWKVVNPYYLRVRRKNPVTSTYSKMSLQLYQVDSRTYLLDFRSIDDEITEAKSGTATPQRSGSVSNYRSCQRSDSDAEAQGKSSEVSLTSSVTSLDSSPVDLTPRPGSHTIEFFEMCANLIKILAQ
Chain of Recombinant AMPK α1/β1/γ1 complex (Q9Y478 whole entry): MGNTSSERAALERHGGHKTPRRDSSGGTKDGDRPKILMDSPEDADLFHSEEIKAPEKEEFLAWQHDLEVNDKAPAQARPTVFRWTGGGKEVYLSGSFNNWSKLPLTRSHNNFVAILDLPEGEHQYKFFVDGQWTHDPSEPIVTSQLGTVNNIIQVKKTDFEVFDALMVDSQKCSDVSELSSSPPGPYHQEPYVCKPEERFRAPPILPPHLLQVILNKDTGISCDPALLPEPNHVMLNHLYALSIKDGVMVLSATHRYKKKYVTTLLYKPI
Chain of Recombinant AMPK α1/β1/γ1 complex (P54619 whole entry partner): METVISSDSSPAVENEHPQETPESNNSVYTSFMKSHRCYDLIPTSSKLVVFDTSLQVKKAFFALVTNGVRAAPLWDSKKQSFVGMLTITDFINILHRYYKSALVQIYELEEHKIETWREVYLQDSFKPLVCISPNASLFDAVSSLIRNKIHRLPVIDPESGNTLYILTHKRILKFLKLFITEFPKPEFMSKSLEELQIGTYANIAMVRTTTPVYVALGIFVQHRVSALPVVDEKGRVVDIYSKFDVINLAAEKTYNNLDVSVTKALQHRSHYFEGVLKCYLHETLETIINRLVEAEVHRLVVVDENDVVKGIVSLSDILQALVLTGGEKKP
Procedure: Compound effect on AMPK enzyme activation was determined in a cell-free format with a 12-point concentration curve. The ADP-Glo detection system was used to determine phosphorylation of a SAMS peptide substrate. Recombinant AMPK α1/β1/γ1 complex was pre-activated by phosphorylation with CAMKK2 followed by incubated with compound for 15 minutes prior to the SAMS phosphorylation reaction. Activity curves and EC50 values were fitted by interpolation to an ATP:ADP standard curve as indicated by the ADP-Glo manufacturer using Prism software. Activity at 10 μM is reported relative to a reference compound, MK-8722 (Science 2017, 357(6350):507-511).

[3] = Concentrations in colon post oral dosing; format: in vivo, mouse; conditions: PO 30 mg/kg
Procedure: A time course for colonic exposure to Compound A1 was determined in mouse following a single bolus oral (PO) gavage of 30 mg/kg of A1. Whole colon from cecum to rectum was collected at 2, 4, 6, and 8 hours post-dose and snap frozen. Tissue was homogenized and the concentration of A1 was measured.

[4] = tested on: Acetyl CoA Carboxylase (ACC) Phosphorylation in Mouse Muscle; assay: Level of ACC phosphorylation in mouse muscle; format: in vivo, C57BL/6J mice
Procedure: Systemic AMPK target engagement in vivo can be assessed by measuring the site-specific phosphorylation of a direct AMPK substrate, acetyl-coenzyme A carboxylase (ACC), in a well perfused tissue such as muscle.
Compounds were formulated in vehicle (0.25% methyl cellulose, 5% Tween 80, 0.02% sodium dodecyl sulfate (SDS) in Hanks' Buffered Salt Solution with Ca^2+ and Mg^2+). Male C57BL/6J mice were administered vehicle or compound once daily for 5 days. On the final day of dosing (day 1 for acute assessment, day 5 for sub-chronic assessment), mice were euthanized by cervical dislocation five hours post dose and samples of skeletal muscle (gastrocnemius) were removed and snap frozen in liquid nitrogen.
Frozen muscle tissues were homogenized. Homogenates were analyzed for protein concentration and equal amounts of protein were assayed for total and phosphorylated ACC (p-ACC) levels using Meso Scale Discovery's Multi-array assay kit. The ratio of p-ACC/total ACC was determined for each sample.

For `O=C(O)CSc1nc2cc(-c3ccc(-c4ccccc4O)cc3)c(Cl)cc2[nH]1` [Compound A1], which “Diarrhea Score % Change vs. Vehicle” value ([1]; 30 mg/kg QD, Day 5) is on record?
The value was “+38%”.

And the “Diarrhea Score” value ([1]; 30 mg/kg QD, Day 5, score 0-3)?
The value was 1.38.

And the “Diarrhea Score % Change vs. Vehicle” value ([1]; 30 mg/kg QD, Day 6)?
The value was −29%.

And the “Diarrhea Score” value ([1]; 30 mg/kg QD, Day 6, score 0-3)?
Its value is 1.25.

What about the EC50 [2] of the same compound?
The EC50 was 200 nM.

What about the activation at 10 µM [2] of the same compound?
The activation at 10 µM was 48%.

And the colonic exposure profile ([3]; 2 to 8 hours post-dose)?
Its colonic exposure profile is 122 to 255 µM.

And the concentration in colon ([3]; 2 h post dosing)?
Its concentration in colon is 254 µM.

And the concentration in colon ([3]; 4 h post dosing)?
The concentration in colon was 122 µM.

What about the concentration in colon ([3]; 6 h post dosing) of the same compound?
Its concentration in colon is 128 µM.

And the concentration in colon ([3]; 8 h post dosing)?
Its concentration in colon is 205 µM.

Which “Diarrhea Score % Change vs. Vehicle” value ([1]; 3 mg/kg BID, Day 5) does the source give for `O=C(O)CSc1nc2nc(-c3ccc(-c4ccccc4O)cc3)c(Cl)cc2[nH]1` [Compound 1, 2-((6-chloro-5-(2′-hydroxy-[1,1′-biphenyl]-4-yl)-1H-imidazo[4,5-b]pyridin-2-yl)thio)acetic Acid] here?
Its value is −17%.

What about the “Diarrhea Score” value ([1]; 3 mg/kg BID, Day 5, score 0-3) of the same compound?
Its value is 0.50.

What about the “Diarrhea Score % Change vs. Vehicle” value ([1]; 3 mg/kg BID, Day 6) of the same compound?
Its value is −56%.

And the “Diarrhea Score” value ([1]; 3 mg/kg BID, Day 6, score 0-3)?
The value was 0.75.

And the “Diarrhea Score % Change vs. Vehicle” value ([1]; 10 mg/kg BID, Day 5)?
Its value is −28%.

And the “Diarrhea Score” value ([1]; 10 mg/kg BID, Day 5, score 0-3)?
The value was 0.43.

What about the “Diarrhea Score % Change vs. Vehicle” value ([1]; 10 mg/kg BID, Day 6) of the same compound?
Its value is −71%.

What about the “Diarrhea Score” value ([1]; 10 mg/kg BID, Day 6, score 0-3) of the same compound?
The value was 0.50.

And the “Diarrhea Score % Change vs. Vehicle” value ([1]; 30 mg/kg BID, Day 5)?
Its value is −100%.

What about the “Diarrhea Score” value ([1]; 30 mg/kg BID, Day 5, score 0-3) of the same compound?
Its value is 0.

And the “Diarrhea Score % Change vs. Vehicle” value ([1]; 30 mg/kg BID, Day 6)?
The value was −66%.

And the “Diarrhea Score” value ([1]; 30 mg/kg BID, Day 6, score 0-3)?
Its value is 0.57.

And the “Diarrhea Score % Change vs. Vehicle” value ([1]; 30 mg/kg QD, Day 5)?
The value was −30%.

And the “Diarrhea Score” value ([1]; 30 mg/kg QD, Day 5, score 0-3)?
The value was 0.63.

And the “Diarrhea Score % Change vs. Vehicle” value ([1]; 30 mg/kg QD, Day 6)?
Its value is −58%.

What about the “Diarrhea Score” value ([1]; 30 mg/kg QD, Day 6, score 0-3) of the same compound?
Its value is 0.75.

And the “Diarrhea Score % Change vs. Vehicle” value ([1]; 100 mg/kg BID, Day 5)?
The value was −63%.

And the “Diarrhea Score” value ([1]; 100 mg/kg BID, Day 5, score 0-3)?
The value was 0.38.

And the “Diarrhea Score % Change vs. Vehicle” value ([1]; 100 mg/kg BID, Day 6)?
The value was −79%.

And the “Diarrhea Score” value ([1]; 100 mg/kg BID, Day 6, score 0-3)?
Its value is 0.38.

And the “potency relative to Compound A1” value [2]?
Its value is over 100 fold.

What about the EC50 [2] of the same compound?
Its EC50 is 1.4 nM.

What about the activation at 10 µM [2] of the same compound?
The activation at 10 µM was 35%.

And the “% p-ACC/ACC ratio change vs. Vehicle, Sub-chronic (5 days)” value ([4]; 30 mg/kg once daily for 5 days, five hours post dose, gastrocnemius)?
The value was 29.6%.

What about the “% p-ACC/ACC ratio change vs. Vehicle, Acute (5 hr)” value ([4]; 30 mg/kg, day 1, five hours post dose, gastrocnemius) of the same compound?
The value was 6.6%.

And the “ratio of pACC/total ACC compared with vehicle control mice” value ([4]; 30 mg/kg, one-way ANOVA vs vehicle (Dunnett's post-test))?
Its value is “not significantly changed”.
